The results in this text go back to patent publication US20240208968A1, “ALPHA V BETA 6 AND ALPHA V BETA 1 INTEGRIN INHIBITORS AND USES THEREOF” (DiCE Molecules SV, Inc., priority 2021, published 2024).

One experiment concerns the target αvβ6 (Homo sapiens, UniProt P06756+P18564). As to the kind of experiment: Solid Phase Integrin αvβ6 Assay. Type of experiment: binding. In short, it runs like this: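 Plates coated with 1 μg/mL recombinant TGFb1-LAP; compounds and αvβ6 (0.2 μg/mL diluted stock) incubated 1 h at room temperature in 2% BSA/TBST with 1 mM MnCl2. Bound integrin detected with streptavidin-HRP and TMB; IC50 from four-parameter logistic fits.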

The target in another experiment is αvβ1 (Homo sapiens, UniProt P05556+P06756). As to the kind of experiment: Solid Phase Integrin αvβ1 Assay. Type of experiment: binding. The essentials:
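Wells coated with 1 µg/mL recombinant TGFb1-LAP and blocked with 2% BSA/TBST, 1 mM MnCl2; αvβ1 (added at 0.2 µg/mL) and compound incubated 90 min at room temperature. Bound integrin detected by streptavidin-HRP (20 min) and TMB after Mn-containing washes; IC50 by four-parameter logistic fit.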

Bounds are passed on as bounds.

Sequence of αvβ1 (P06756 31-992 limits assumed): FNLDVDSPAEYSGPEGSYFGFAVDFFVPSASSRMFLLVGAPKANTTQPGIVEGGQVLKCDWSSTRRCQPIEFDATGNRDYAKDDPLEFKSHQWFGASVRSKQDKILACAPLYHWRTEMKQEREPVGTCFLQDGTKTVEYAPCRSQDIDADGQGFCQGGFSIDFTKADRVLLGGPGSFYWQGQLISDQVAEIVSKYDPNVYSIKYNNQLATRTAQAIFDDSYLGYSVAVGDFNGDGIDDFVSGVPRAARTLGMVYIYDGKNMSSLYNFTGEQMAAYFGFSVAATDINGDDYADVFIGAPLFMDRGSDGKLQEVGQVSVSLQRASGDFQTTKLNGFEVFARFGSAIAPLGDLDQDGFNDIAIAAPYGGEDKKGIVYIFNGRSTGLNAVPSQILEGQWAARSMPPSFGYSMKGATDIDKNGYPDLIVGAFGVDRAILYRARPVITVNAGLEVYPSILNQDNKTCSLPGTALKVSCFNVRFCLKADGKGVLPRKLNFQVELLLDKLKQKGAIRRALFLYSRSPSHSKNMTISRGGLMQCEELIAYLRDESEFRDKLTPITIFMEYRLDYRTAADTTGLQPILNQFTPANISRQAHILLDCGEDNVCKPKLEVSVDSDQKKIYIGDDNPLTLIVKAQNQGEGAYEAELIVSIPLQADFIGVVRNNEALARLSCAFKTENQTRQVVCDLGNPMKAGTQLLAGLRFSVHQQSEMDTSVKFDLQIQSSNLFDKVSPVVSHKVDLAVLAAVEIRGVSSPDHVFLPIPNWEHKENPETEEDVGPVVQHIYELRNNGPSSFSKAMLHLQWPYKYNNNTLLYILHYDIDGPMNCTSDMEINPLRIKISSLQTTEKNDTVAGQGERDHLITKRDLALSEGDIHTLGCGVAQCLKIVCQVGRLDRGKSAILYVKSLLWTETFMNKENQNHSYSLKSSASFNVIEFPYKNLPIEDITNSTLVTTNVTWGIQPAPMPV
Sequence of αvβ1 (P05556 21-728 limits assumed): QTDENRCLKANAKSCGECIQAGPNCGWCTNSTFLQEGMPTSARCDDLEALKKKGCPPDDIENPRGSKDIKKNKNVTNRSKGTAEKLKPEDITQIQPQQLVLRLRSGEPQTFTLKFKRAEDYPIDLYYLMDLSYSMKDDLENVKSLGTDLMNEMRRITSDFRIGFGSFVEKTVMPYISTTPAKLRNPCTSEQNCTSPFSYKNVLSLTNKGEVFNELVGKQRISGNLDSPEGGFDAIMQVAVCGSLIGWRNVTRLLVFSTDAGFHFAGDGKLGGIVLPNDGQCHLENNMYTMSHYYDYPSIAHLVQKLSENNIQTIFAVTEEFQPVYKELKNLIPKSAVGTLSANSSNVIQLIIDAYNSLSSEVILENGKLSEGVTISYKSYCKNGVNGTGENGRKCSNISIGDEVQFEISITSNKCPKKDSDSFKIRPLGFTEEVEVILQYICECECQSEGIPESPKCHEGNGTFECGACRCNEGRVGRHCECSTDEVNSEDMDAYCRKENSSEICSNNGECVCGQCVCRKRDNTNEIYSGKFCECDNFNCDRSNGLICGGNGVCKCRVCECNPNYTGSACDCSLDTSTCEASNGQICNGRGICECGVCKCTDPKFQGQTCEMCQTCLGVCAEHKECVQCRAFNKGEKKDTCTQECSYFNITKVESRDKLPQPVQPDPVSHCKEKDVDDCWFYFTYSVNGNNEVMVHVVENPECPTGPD
Sequence of αvβ6 (P06756 31-992 limits assumed): as the sequence (P06756 31-992 limits assumed) above
Sequence of αvβ6 (P18564 22-707 limits assumed): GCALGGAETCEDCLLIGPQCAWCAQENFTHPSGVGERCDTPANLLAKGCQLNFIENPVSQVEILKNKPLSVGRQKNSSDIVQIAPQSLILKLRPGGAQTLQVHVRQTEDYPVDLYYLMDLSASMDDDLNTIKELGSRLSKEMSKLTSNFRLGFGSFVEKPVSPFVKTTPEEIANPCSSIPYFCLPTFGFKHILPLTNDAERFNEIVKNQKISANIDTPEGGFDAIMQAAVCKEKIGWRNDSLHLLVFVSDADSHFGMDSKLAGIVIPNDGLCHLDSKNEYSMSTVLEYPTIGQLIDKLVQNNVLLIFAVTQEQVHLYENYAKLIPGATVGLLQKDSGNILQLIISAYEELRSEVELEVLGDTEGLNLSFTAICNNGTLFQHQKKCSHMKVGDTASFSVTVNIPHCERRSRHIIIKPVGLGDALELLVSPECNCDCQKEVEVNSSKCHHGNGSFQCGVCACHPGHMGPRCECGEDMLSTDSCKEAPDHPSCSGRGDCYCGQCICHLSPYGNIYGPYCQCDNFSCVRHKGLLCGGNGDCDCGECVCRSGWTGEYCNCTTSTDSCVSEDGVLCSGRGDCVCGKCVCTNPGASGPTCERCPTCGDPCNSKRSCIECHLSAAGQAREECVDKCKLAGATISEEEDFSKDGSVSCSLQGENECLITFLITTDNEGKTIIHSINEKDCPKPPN

As for `CC1(C)COCCN1c1cccc([C@@H](CNC(=O)[C@@H]2CCCN(CCCc3ccc4c(n3)NCCC4)C2)C(=O)O)c1` [Compound 597], the IC50 against αvβ6 and at αvβ1 was < 100 nM in each case.
For `CC1(C)CCCN(c2cccc([C@@H](CNC(=O)[C@@H]3CCCN(CCCc4ccc5c(n4)NCCC5)C3)C(=O)O)c2)C1` [Compound 599], the IC50 against αvβ6 and at αvβ1 was < 100 nM each time.
In the case of `CC1(C)CCN(c2cccc([C@@H](CNC(=O)[C@@H]3CCCN(CCCc4ccc5c(n4)NCCC5)C3)C(=O)O)c2)CC1` [Compound 601], the IC50 against αvβ6 and against αvβ1 was < 100 nM in each case.
Regarding `C[C@H]1CN(c2cccc([C@H](CNC(=O)[C@@H]3CCCN(CCCc4ccc5c(n4)NCCC5)C3)C(=O)O)c2)C[C@H](C)O1` [Compound 603], the IC50 on αvβ6 and against αvβ1 was < 100 nM throughout.
As for `C[C@@H]1CN(c2cccc([C@@H](CNC(=O)[C@@H]3CCCN(CCCc4ccc5c(n4)NCCC5)C3)C(=O)O)c2)C[C@H](C)O1` [Compound 604], the IC50 at αvβ6 and against αvβ1 was < 100 nM each time.
Regarding `C[C@@H]1CN(c2cccc([C@H](CNC(=O)[C@@H]3CCCN(CCCc4ccc5c(n4)NCCC5)C3)C(=O)O)c2)C[C@@H](C)O1` [Compound 605], the IC50 against αvβ6 and at αvβ1 was < 100 nM throughout.
Consider `CNC(=O)[C@@H]1CN(C(=O)CCCc2ccc3c(c2)NCCC3)C[C@H]1NC(=O)CC(CC(=O)O)c1ccccc1` (stereo partly drawn) [Compound 606], for which the IC50 – broadly, the concentration that gives 50% inhibition – was 100 to 1000 nM against αvβ6 and < 100 nM against αvβ1.
Turning to `CNC(=O)[C@H]1C[C@H](C(=O)N[C@@H](CC(=O)O)c2ccccc2)CN(CCCc2ccc3c(n2)NCCC3)C1` [Compound 607], the IC50 on αvβ6 and against αvβ1 was < 100 nM in each case.
Turning to `O=C(O)[C@@H](c1ccccc1)[C@@H](O)CO[C@@H]1CCCN(CCCc2ccc3c(n2)NCCC3)C1` [Compound 608], the IC50 against αvβ6 and against αvβ1 was > 1000 nM in each case.
In the case of `O=C(O)[C@@H](c1ccccc1)[C@H](O)CO[C@@H]1CCCN(CCCc2ccc3c(n2)NCCC3)C1` [Compound 609], the IC50 at αvβ6 and against αvβ1 was > 1000 nM each time.
For `O=C(O)C(c1ccccc1)C(O)CO[C@@H]1CCCN(CCCc2ccc3c(n2)NCCC3)C1` (stereo partly drawn) [Compound 610], the IC50 against αvβ6 and against αvβ1 was > 1000 nM in each case.
With `O=C(O)[C@H](c1ccccc1)[C@H](O)CO[C@@H]1CCCN(CCCc2ccc3c(n2)NCCC3)C1` [Compound 611], the half-inhibitory concentration (IC50) against αvβ6 and on αvβ1 was > 1000 nM throughout.
`O=C(O)[C@H](c1ccccc1)[C@@H](O)CO[C@@H]1CCCN(CCCc2ccc3c(n2)NCCC3)C1` [Compound 612]: the IC50 on αvβ6 and against αvβ1 was > 1000 nM each time.
Turning to `O=C(O)C[C@H](NC(=O)[C@@H]1CCCN(CCCc2ccc3c(n2)NCCC3)C1)c1ccc2c(c1)OCC2` [Compound 613], the IC50 against αvβ6 and at αvβ1 was < 100 nM in each case.
For the compound `O=C(O)C[C@H](NC(=O)[C@@H]1CCCN(CCCc2ccc3c(n2)NCCC3)C1)c1cccc2c1OCO2` [Compound 614], the IC50 on αvβ6 and against αvβ1 was < 100 nM throughout.
`O=C(O)C[C@H](NC(=O)[C@@H]1CCCN(CCCc2ccc3c(n2)NCCC3)C1)c1cccc2c1CCO2` [Compound 615]: the IC50 against αvβ6 and on αvβ1 was < 100 nM each time.
As to `O=C(O)C[C@H](NC(=O)[C@@H]1CCCN(CCCc2ccc3c(n2)NCCC3)C1)c1cnn(-c2ccccc2)c1` [Compound 616], the IC50 on αvβ6 and on αvβ1 was < 100 nM in each case.
`C[C@@H]1CN(c2cccc([C@H](CC(=O)O)NC(=O)[C@@H]3CCCN(CCCc4ccc5c(n4)NCCC5)C3)c2)C[C@H](C)O1` [Compound 617]: the IC50 at αvβ6 and against αvβ1 was < 100 nM in each case.
As for `C[C@@H]1CN(c2cccc([C@H](CC(=O)O)NC(=O)[C@@H]3CCCN(CCCc4ccc5c(n4)NCCC5)C3)c2)C[C@@H](C)O1` [Compound 618], the IC50 on αvβ6 and on αvβ1 was < 100 nM each time.
In the case of `O=C(NC[C@H](C(=O)O)c1cccc2cn([C@H]3CCC(F)(F)C3)nc12)[C@@H]1CCCN(CCCc2ccc3c(n2)NCCC3)C1` [Compound 619], the IC50 against αvβ6 and against αvβ1 was < 100 nM in each case.
On to `O=C(NC[C@H](C(=O)O)c1cncc(-c2ccccc2)c1)[C@@H]1CCCN(CCCc2ccc3c(n2)NCCC3)C1` [Compound 620], for which the IC50 at αvβ6 and against αvβ1 was < 100 nM in each case.
In the case of `O=C(NC[C@H](C(=O)O)c1cccc(-c2ccccc2C(F)(F)F)c1)[C@@H]1CCCN(CCCc2ccc3c(n2)NCCC3)C1` [Compound 621], the IC50 on αvβ6 and against αvβ1 was < 100 nM throughout.
As for `O=C(NC[C@H](C(=O)O)c1ccc(F)c(-c2ccccc2)c1F)[C@@H]1CCCN(CCCc2ccc3c(n2)NCCC3)C1` [Compound 622], the IC50 against αvβ6 and against αvβ1 was 100 to 1000 nM in each case.
Turning to `O=C(NC[C@H](C(=O)O)c1cccc2cn([C@@H]3CCC(F)(F)C3)nc12)[C@@H]1CCCN(CCCc2ccc3c(n2)NCCC3)C1` [Compound 623], the IC50 at αvβ6 and on αvβ1 was < 100 nM in each case.
Turning to `O=C(NC[C@@H](C(=O)O)c1cccc2cn([C@H]3CCC(F)(F)C3)nc12)[C@@H]1CCCN(CCCc2ccc3c(n2)NCCC3)C1` [Compound 624], the IC50 was > 1000 nM at αvβ6 and 100 to 1000 nM against αvβ1.
On the same counts, the results for `O=C(NC[C@@H](C(=O)O)c1cccc(-c2ccccc2C(F)(F)F)c1)[C@@H]1CCCN(CCCc2ccc3c(n2)NCCC3)C1` [Compound 625] are 100 to 1000 nM and > 1000 nM.
On the same counts, the results for `O=C(NC[C@@H](C(=O)O)c1ccc(F)c(-c2ccccc2)c1F)[C@@H]1CCCN(CCCc2ccc3c(n2)NCCC3)C1` [Compound 626] are < 100 nM and < 100 nM.
On the same counts, the results for `O=C(NC[C@@H](C(=O)O)c1cncc(-c2ccccc2)c1)[C@@H]1CCCN(CCCc2ccc3c(n2)NCCC3)C1` [Compound 627] are < 100 nM and < 100 nM.
In the case of `O=C(O)C(CNC(=O)[C@@H]1CCCN(CCCc2ccc3c(n2)NCCC3)C1)c1cc(-c2ccccc2)ccn1` (stereo partly drawn) [Compound 628], the IC50 on αvβ6 and against αvβ1 was < 100 nM each time.
`O=C(NC[C@H](C(=O)O)c1cc(F)cc(-c2cccc(F)c2)c1)[C@@H]1CCCN(CCCc2ccc3c(n2)NCCC3)C1` [Compound 629]: the figures for the half-inhibitory concentration (IC50) at αvβ6 and against αvβ1 were 100 to 1000 nM and > 1000 nM, respectively.
On the same counts, the results for `C[C@@H]1C[C@@H](C(=O)NC[C@H](C(=O)O)c2cccc(-c3ccccc3)c2)CN(CCCc2ccc3c(n2)NCCC3)C1` [Compound 630] are > 1000 nM and > 1000 nM.
`C[C@H]1C[C@@H](C(=O)NC[C@H](C(=O)O)c2cccc(-c3ccccc3)c2)CN(CCCc2ccc3c(n2)NCCC3)C1` [Compound 631]: the IC50 against αvβ6 and against αvβ1 was < 100 nM each time.
Take `C[C@@H]1C[C@@H](C(=O)NC[C@H](C(=O)O)c2ccc3ccccc3c2)CN(CCCc2ccc3c(n2)NCCC3)C1` [Compound 632]: the IC50 on αvβ6 and on αvβ1 was 100 to 1000 nM each time.
For `C[C@H]1C[C@@H](C(=O)NC[C@H](C(=O)O)c2ccc3ccccc3c2)CN(CCCc2ccc3c(n2)NCCC3)C1` [Compound 633], the IC50 against αvβ6 and at αvβ1 was < 100 nM throughout.
As to `C[C@@H]1C[C@H](C(=O)NC[C@H](C(=O)O)c2ccc3ccccc3c2)CN(CCCc2ccc3c(n2)NCCC3)C1` [Compound 634], the IC50 on αvβ6 and at αvβ1 was 100 to 1000 nM throughout.
`C[C@H]1C[C@H](C(=O)NC[C@H](C(=O)O)c2ccc3ccccc3c2)CN(CCCc2ccc3c(n2)NCCC3)C1` [Compound 635]: the IC50 against αvβ6 and against αvβ1 was 100 to 1000 nM each time.
For `O=C(NC[C@@H](C(=O)O)c1cc(F)cc(-c2cccc(F)c2)c1)[C@@H]1CCCN(CCCc2ccc3c(n2)NCCC3)C1` [Compound 636], the IC50 against αvβ6 and at αvβ1 was < 100 nM in each case.
As for `C[C@@H]1C[C@H](C(=O)NC[C@H](C(=O)O)c2cccc(-c3ccccc3)c2)CN(CCCc2ccc3c(n2)NCCC3)C1` [Compound 637], the IC50 at αvβ6 is < 100 nM; against αvβ1 it was 100 to 1000 nM.
Taken in the same sequence, the figures for `C[C@H]1C[C@H](C(=O)NC[C@H](C(=O)O)c2cccc(-c3ccccc3)c2)CN(CCCc2ccc3c(n2)NCCC3)C1` [Compound 638] were < 100 nM and < 100 nM.
On the same counts, the results for `C[C@@H]1C[C@@H](C(=O)NC[C@@H](C(=O)O)c2ccc3ccccc3c2)CN(CCCc2ccc3c(n2)NCCC3)C1` [Compound 639] are 100 to 1000 nM and 100 to 1000 nM.
Turning to `C[C@@H]1C[C@@H](C(=O)NC[C@@H](C(=O)O)c2cccc(-c3ccccc3)c2)CN(CCCc2ccc3c(n2)NCCC3)C1` [Compound 640], the IC50 at αvβ6 and on αvβ1 was 100 to 1000 nM in each case.
On to `C[C@@H]1C[C@H](C(=O)NC[C@@H](C(=O)O)c2ccc3ccccc3c2)CN(CCCc2ccc3c(n2)NCCC3)C1` [Compound 641], for which the IC50 on αvβ6 and on αvβ1 was 100 to 1000 nM throughout.
For `C[C@@H]1C[C@H](C(=O)NC[C@@H](C(=O)O)c2cccc(-c3ccccc3)c2)CN(CCCc2ccc3c(n2)NCCC3)C1` [Compound 642], the IC50 against αvβ6 and at αvβ1 was > 1000 nM in each case.
As for `C[C@H]1C[C@H](C(=O)NC[C@@H](C(=O)O)c2ccc3ccccc3c2)CN(CCCc2ccc3c(n2)NCCC3)C1` [Compound 643], the IC50 at αvβ6 and at αvβ1 was < 100 nM in each case.
As for `C[C@H]1C[C@H](C(=O)NC[C@@H](C(=O)O)c2cccc(-c3ccccc3)c2)CN(CCCc2ccc3c(n2)NCCC3)C1` [Compound 644], the IC50 on αvβ6 and against αvβ1 was 100 to 1000 nM in each case.
